# Measurements: patent US9464076B2, “Benzothiophene derivative” (Daiichi Sankyo Company, Limited, priority 2013, dated 2016)
# Counter-ions that a name gives are not always drawn.
# Assays:
# [1] = target: PDE10A (Homo sapiens (Human), UniProt Q9Y233); experiment: Measurement of PDE10A inhibitory activity-2 (PDE10A fraction prepared from MOLT-4 cells); format: biochemical; details: PDE10A fraction from MOLT-4 cells (peak around 250 mM NaCl)
# In short: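 Enzyme source was a PDE10A-containing fraction from MOLT-4 cell soluble extract, resolved by HiTrap Q anion exchange with a 0–0.8 M NaCl gradient and selected by cAMP-hydrolysing activity. IC50 determined with this fraction by the same procedure as the preceding PDE10A assay.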
# [2] = system: Male C57BL/6 Cr mice; experiment: Test on suppression of phencyclidine-induced hyperlocomotion in mice; format: in vivo, mouse; details: locomotor activity, test compound 10 mg/kg oral, phencyclidine 5 mg/kg s.c. approx. 1 hour later, measured for 1 hour; for inhibition in vivo at 10 mg/kg: Mus musculus, po, 1 h
# Protocol: Male C57BL/6 Cr mice (Japan SLC, Inc.) (8 weeks old) were used in the experiment. A test compound was suspended at 1 mg/mL in a 0.5% hydroxypropylcellulose solution to prepare a suspension for administration. The suspension of the test compound or a solvent (0.5% hydroxypropylcellulose solution) was orally administered at a dose of 10 mL/kg to each mouse. After the administration, the mouse was immediately placed in a locomotor activity measurement apparatus (Muromachi Kikai Co., Ltd., locomotor activity measurement system SUPERMEX). Approximately 1 hour later, phencyclidine (5 mg/10 mL/kg) or a solvent (10 mL/kg saline) was subcutaneously administered to the mouse. The locomotor activity was measured from immediately after the subcutaneous administration to 1 hour later.
# Percent inhibition exceeding 100 means that when the activity of the phencyclidine administration control group was defined as 100, the activity of the group given a test compound was lower than that of the solvent administration control group.
# [3] = system: Male C57BL/6 Cr mice; experiment: as above; format: in vivo; details: Mus musculus, oral, calculated by the linear regression method
# [4] = target: PDE10A (H-PDE10A2, Human Phosphodiesterase 10A2) (Homo sapiens (Human), UniProt Q9Y233); experiment: Measurement of PDE10A inhibitory activity-1 (3H-cAMP, recombinant enzyme); format: biochemical; details: H-PDE10A2, 64 nM cAMP, 25° C., 2 hours
# Protocol: To a solution containing 20 mM Tris-HCl (pH 7.5), 1 mM MgCl2, 100 μM EDTA, 330 μg/ml bovine serum albumin, 50 kU/ml 5′-nucleotidase, 0.1 μCi ^3H-cAMP (64 nM cAMP), and PDE10A (H-PDE10A2, Human Phosphodiesterase 10A2, Scottish Biomedical), a test compound was added, and the mixture was reacted at 25° C. for 2 hours. To the reaction solution, QAE-Sephadex (17-0190-01, GE Healthcare Japan Corp.) suspended in 10 mM HEPES-Na (pH 7.0) (hereinafter, also referred to as a “QAE-Sephadex suspension”) was added, and the mixture was shaken for 1 minute and left standing for 5 minutes to obtain a supernatant. To the supernatant, a QAE-Sephadex suspension was further added, and the mixture was shaken for 1 minute and left standing for 5 minutes. Then, the obtained supernatant was transferred to LumaPlate (PerkinElmer, Inc.) and assayed using a radiation counter (TopCount NXT, PerkinElmer, Inc.).
# The value of the sample reacted without the addition of both a test compound and PDE10A was defined as 0%, and the value of the sample reacted in the presence of PDE10A without the addition of a test compound was defined as 100%.
# Sequence of PDE10A (Q9Y233 whole entry): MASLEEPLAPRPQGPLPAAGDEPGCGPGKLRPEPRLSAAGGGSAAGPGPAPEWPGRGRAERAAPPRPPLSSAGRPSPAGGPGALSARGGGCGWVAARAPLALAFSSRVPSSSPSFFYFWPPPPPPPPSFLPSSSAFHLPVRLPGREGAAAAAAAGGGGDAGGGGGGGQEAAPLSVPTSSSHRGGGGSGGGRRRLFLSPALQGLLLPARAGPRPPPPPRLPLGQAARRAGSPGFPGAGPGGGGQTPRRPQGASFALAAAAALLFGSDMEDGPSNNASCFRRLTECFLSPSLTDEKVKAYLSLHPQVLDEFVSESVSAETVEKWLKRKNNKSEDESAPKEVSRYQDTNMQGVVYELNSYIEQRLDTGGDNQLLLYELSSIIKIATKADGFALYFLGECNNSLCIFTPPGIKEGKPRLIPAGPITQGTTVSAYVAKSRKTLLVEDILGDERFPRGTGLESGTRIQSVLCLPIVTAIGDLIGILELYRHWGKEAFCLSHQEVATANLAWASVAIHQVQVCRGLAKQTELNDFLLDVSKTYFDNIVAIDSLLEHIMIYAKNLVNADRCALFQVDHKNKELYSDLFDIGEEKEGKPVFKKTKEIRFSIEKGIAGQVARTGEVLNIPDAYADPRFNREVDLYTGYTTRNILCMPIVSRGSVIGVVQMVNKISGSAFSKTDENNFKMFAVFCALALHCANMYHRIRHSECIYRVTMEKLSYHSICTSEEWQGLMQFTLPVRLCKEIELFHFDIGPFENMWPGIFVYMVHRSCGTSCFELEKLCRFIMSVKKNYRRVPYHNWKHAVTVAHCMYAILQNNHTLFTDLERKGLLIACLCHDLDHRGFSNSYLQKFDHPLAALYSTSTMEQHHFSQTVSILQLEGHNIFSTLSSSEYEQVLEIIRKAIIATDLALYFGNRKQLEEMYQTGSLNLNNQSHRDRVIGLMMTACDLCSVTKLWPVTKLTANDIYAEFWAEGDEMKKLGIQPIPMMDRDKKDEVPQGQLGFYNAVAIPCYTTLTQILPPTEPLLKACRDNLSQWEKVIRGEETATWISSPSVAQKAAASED
# Sequence of PDE10A (H-PDE10A2, Human Phosphodiesterase 10A2) (Q9Y233 267-1055): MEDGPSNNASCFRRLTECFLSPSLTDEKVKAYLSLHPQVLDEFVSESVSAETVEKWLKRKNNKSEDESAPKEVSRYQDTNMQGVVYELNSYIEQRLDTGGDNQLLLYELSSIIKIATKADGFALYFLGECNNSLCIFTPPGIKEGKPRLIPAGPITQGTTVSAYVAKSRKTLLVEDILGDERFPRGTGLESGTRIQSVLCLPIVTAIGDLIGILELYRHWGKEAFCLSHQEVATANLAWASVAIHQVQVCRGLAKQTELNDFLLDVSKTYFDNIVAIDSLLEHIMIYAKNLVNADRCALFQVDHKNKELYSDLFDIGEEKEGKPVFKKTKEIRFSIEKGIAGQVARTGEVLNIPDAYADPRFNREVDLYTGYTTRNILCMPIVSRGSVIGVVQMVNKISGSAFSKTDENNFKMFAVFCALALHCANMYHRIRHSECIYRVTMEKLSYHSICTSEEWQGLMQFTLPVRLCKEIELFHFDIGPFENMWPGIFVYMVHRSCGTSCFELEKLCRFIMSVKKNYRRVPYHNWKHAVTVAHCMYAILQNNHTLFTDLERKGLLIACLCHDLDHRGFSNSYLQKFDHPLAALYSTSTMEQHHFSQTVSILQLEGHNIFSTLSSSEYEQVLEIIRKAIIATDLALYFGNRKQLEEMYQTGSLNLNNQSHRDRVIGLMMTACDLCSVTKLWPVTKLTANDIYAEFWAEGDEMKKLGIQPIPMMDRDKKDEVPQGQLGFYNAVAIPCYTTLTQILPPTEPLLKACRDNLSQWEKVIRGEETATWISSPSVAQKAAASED
Compound,IC50 [1],% inhibition [2],ED50 [3],inhibition in vivo at 10 mg/kg [2],further results
"COCc1cccc2nc(NC(=O)c3sc4c(C(C)=O)ccc(COC)c4c3C)ccc12 [Example 69, 7-Acetyl-4-(methoxymethyl)-N-(5-(methoxymethyl)quinolin-2-yl)-3-methylbenzo[b]thiophene-2-carboxamide methanesulfonate]",–,81%,3 mg/kg,–,IC50 ([1]; methanesulfonate): 0.38 nM
"COCc1ccc(C(C)=O)c2sc(C(=O)Nc3ccc4c(CN5CC[C@@H](O)C5)cccc4n3)c(C)c12 [Example 64, (R)-7-Acetyl-N-(5-((3-hydroxypyrrolidin-1-yl)methyl)quinolin-2-yl)-4-(methoxymethyl)-3-methylbenzo[b]thiophene-2-carboxamide dihydrochloride]",0.76 nM,–,7.2 mg/kg,109%,–
"COCc1ccc(C(C)=O)c2sc(C(=O)Nc3ccc4c(CN5CCOCC5)cccc4n3)c(C)c12.Cl [Example 61, 7-Acetyl-4-(methoxymethyl)-3-methyl-N-(5-(morpholinomethyl)quinolin-2-yl)benzo[b]thiophene-2-carboxamide hydrochloride]",–,–,5.7 mg/kg,122%,–
"Br.COCc1ccc(C(C)=O)c2sc(C(=O)Nc3ccc4c(CS(C)(=O)=O)cccc4n3)c(C)c12 [Example 112, 7-Acetyl-4-(methoxymethyl)-3-methyl-N-(5-((methylsulfonyl)methyl)quinolin-2-yl)benzo[b]thiophene-2-carboxamide hydrobromide]",–,57%,–,–,IC50 ([4]; hydrobromide): 0.84 nM
"COCc1ccc(C(C)=O)c2sc(C(=O)Nc3ccc4c(CO)cccc4n3)c(C)c12.Cc1ccc(S(=O)(=O)O)cc1 [Example 81, 7-Acetyl-N-(5-(hydroxymethyl)quinolin-2-yl)-4-(methoxymethyl)-3-methylbenzo[b]thiophene-2-carboxamide p-toluenesulfonate]",–,122%,3.3 mg/kg,–,–
"COCc1ccc(C(C)=O)c2sc(C(=O)Nc3cc(CN4CC[C@H](O)C4)c4ccccc4n3)c(C)c12 [Example 38, (S)-7-Acetyl-N-(4-((3-hydroxypyrrolidin-1-yl)methyl)quinolin-2-yl)-4-(methoxymethyl)-3-methylbenzo[b]thiophene-2-carboxamide]",0.23 nM,–,7 mg/kg,88%,IC50 [4]: 0.42 nM
"COCc1ccc(C(C)=O)c2sc(C(=O)Nc3cc(CN4CC[C@@H](O)C4)c4ccccc4n3)c(C)c12 [Example 39, (R)-7-Acetyl-N-(4-((3-hydroxypyrrolidin-1-yl)methyl)quinolin-2-yl)-4-(methoxymethyl)-3-methylbenzo[b]thiophene-2-carboxamide]",0.35 nM,–,3.1 mg/kg,103%,IC50 [4]: 0.41 nM
"CC(=O)c1ccc(C(C)=O)c2c(C)c(C(=O)Nc3cc(C(C)(C)O)c4ccccc4n3)sc12 [Example 6, 4,7-Diacetyl-N-(4-(2-hydroxypropan-2-yl)quinolin-2-yl)-3-methylbenzo[b]thiophene-2-carboxamide methanesulfonate]",–,–,–,–,IC50 ([4]; methanesulfonate): 5.1 nM
"COCc1ccc(C(C)=O)c2sc(C(=O)Nc3ccc4c(C(=O)N5CC(OC)C5)cccc4n3)c(C)c12.Cc1ccc(S(=O)(=O)O)cc1 [Example 106, 7-Acetyl-N-(5-((3-methoxyazetidin-1-yl)carbonyl)quinolin-2-yl)-4-(methoxymethyl)-3-methylbenzo[b]thiophene-2-carboxamide p-toluenesulfonate]",–,87%,2.2 mg/kg,–,IC50 ([1]; p-toluenesulfonate): 0.5 nM
"COCc1cccc2nc(NC(=O)c3sc4c(C(C)=O)ccc(COC)c4c3C)ccc12.Cl [Example 68, 7-Acetyl-4-(methoxymethyl)-N-(5-(methoxymethyl)quinolin-2-yl)-3-methylbenzo[b]thiophene-2-carboxamide hydrochloride]",–,121%,3.6 mg/kg,–,IC50 ([4]; hydrochloride): 1.9 nM; IC50 ([1]; hydrochloride): 0.93 nM

# The next lines start with results.
IC50 [1],Compound,% inhibition [2],ED50 [3],inhibition in vivo at 10 mg/kg [2],further results
0.23 nM,"COCc1ccc(C(C)=O)c2sc(C(=O)Nc3ccc4c(CS(C)(=O)=O)cccc4n3)c(C)c12 [Example 110, 7-Acetyl-4-(methoxymethyl)-3-methyl-N-(5-((methylsulfonyl)methyl)quinolin-2-yl)benzo[b]thiophene-2-carboxamide hydrochloride]",–,–,76%,IC50 ([4]; hydrochloride): 1.4 nM
0.3 nM,"COCc1ccc(C(C)=O)c2sc(C(=O)Nc3ccc4c(C(=O)N5CC(OC)C5)cccc4n3)c(C)c12 [Example 102, 7-Acetyl-N-(5-((3-methoxyazetidin-1-yl)carbonyl)quinolin-2-yl)-4-(methoxymethyl)-3-methylbenzo[b]thiophene-2-carboxamide]",120%,–,–,IC50 [4]: 0.7 nM
